Test results from PubChem BioAssay AID328 (DTP/NCI, 2004).
Values joined by “and” are separate entries in the source; they are usually repeats but may differ in a detail not shown here. Equal entries are not always repeated. Inconclusive results and toxic doses are left out. Positions of bridges follow the written chain, without caps; N, C: chain ends. Non-standard residues stand in square brackets, D forms with d. Residues, ends and D or L forms follow the SMILES beside them. NMeV = CN[CH](C(=O)O)C(C)C; Sar = CNCC(=O)O

Tested on: BDF1 mice, P388 leukemia ip, median survival T/C
Assay: NCI In Vivo Anticancer Drug Screen. Data for tumor model P388 Leukemia (intraperitoneal) in B6D2F1 (BDF1) mice
Conditions: endpoint: median survival time, higher = longer survival
Outline: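 Reported as T/C, where T is the survival measurement in dosed animals and C the same measurement in vehicle controls.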

[1] = dose: 50.0 mg/kg/injection, schedule: Q01DX009 (ip), vehicle: saline with Tween-80
[2] = dose: 100.0 mg/kg/injection, schedule: Q01DX009 (ip), vehicle: saline with Tween-80
[3] = dose: 200.0 mg/kg/injection, schedule: Q01DX009 (ip), vehicle: saline with Tween-80
[4] = dose: 50.0 mg/kg/injection, schedule: Q04DX003 (ip), vehicle: saline with Tween-80
[5] = dose: 100.0 mg/kg/injection, schedule: Q04DX003 (ip), vehicle: saline with Tween-80
[6] = dose: 200.0 mg/kg/injection, schedule: Q04DX003 (ip), vehicle: saline with Tween-80
[7] = dose: 50.0 mg/kg/injection, schedule: Q01DX009 (ip), vehicle: saline
[8] = dose: 25.0 mg/kg/injection, schedule: Q04DX003 (ip), vehicle: saline with Tween-80
[9] = dose: 25.0 mg/kg/injection, schedule: Q01DX009 (ip), vehicle: Klucel (hydroxypropylcellulose) (HPC)
[10] = dose: 100.0 mg/kg/injection, schedule: Q04DX003 (ip), vehicle: saline sonified
[11] = dose: 200.0 mg/kg/injection, schedule: Q04DX003 (ip), vehicle: saline sonified

In the case of CN(c1ccccc1)c1nc(=O)c2cc3ccc(=O)oc3cc2o1, the T/C (dose: 100.0 mg/kg/injection, schedule: Q04DX002 (ip), vehicle: saline with Tween-80) is reported as 99 % of control, the T/C (dose: 200.0 mg/kg/injection, schedule: Q04DX002 (ip), vehicle: saline with Tween-80) is reported as 109 % of control and the T/C (dose: 400.0 mg/kg/injection, schedule: Q04DX002 (ip), vehicle: saline with Tween-80) is reported as 100 % of control.
CN(C)c1ccc(/C=C/c2ccnc3cc(Cl)ccc23)cc1 was tested, and the T/C [1] was 118 % of control, the T/C [2] was 100 % of control and the T/C [3] was 93 % of control.
For CCCN(CCC)CCC#N, the T/C [4] was 104 % of control, the T/C [5] was 100 % of control and the T/C [6] was 90 % of control.
For CCCCCCCCCCCC[N+](CC)(CC)CC(=O)O, the T/C (dose: 33.0 mg/kg/injection, schedule: Q01DX009 (ip), vehicle: saline) was 113 % of control and the T/C [7] was 113 % of control.
CC(C)C1NC(=O)C(N)C(C)OC(=O)C(C(C)C)N(C)C(=O)CN(C)C(=O)C2CCCN2C1=O (stereo not drawn) (tested in a mixture with another compound) (H-TVP[Sar][NMeV]; ester 1-C; configuration not given here) was tested, and the T/C (dose: 0.05 mg/kg/injection, schedule: Q01DX009 (ip), vehicle: saline + alcohol) was 201 % of control, the T/C (dose: 0.1 mg/kg/injection, schedule: Q01DX009 (ip), vehicle: saline + alcohol) was 260 % of control and the T/C (dose: 0.2 mg/kg/injection, schedule: Q01DX009 (ip), vehicle: saline + alcohol) was 531 % of control. The T/C (dose: 0.3 mg/kg/injection, schedule: Q04DX003 (ip), vehicle: saline + alcohol) was 239 % of control, the T/C (dose: 0.4 mg/kg/injection, schedule: Q01DX009 (ip), vehicle: saline + alcohol) was 96 % of control and the T/C (dose: 0.6 mg/kg/injection, schedule: Q04DX003 (ip), vehicle: saline + alcohol) was 281 % of control and 187 % of control. The T/C (dose: 1.2 mg/kg/injection, schedule: Q04DX003 (ip), vehicle: saline + alcohol) was 107 % of control.
In the case of O=C(CC(O)(C(F)(F)F)C(F)(F)F)c1ccc(Cl)cc1, the T/C [1] is reported as 108 % of control, the T/C [2] is reported as 95 % of control and the T/C [3] is reported as 108 % of control.
With OCC1OC(n2cnc3c(=S)nc[nH]c32)C(O)C1O (stereo not drawn) the T/C (dose: 20.0 mg/kg/injection, schedule: Q01DX010 (ip), vehicle: saline) was 90 % of control, the T/C (dose: 40.0 mg/kg/injection, schedule: Q01DX010 (ip), vehicle: saline) was 100 % of control and the T/C (dose: 80.0 mg/kg/injection, schedule: Q01DX010 (ip), vehicle: saline) was 100 % of control. For the same molecule, the T/C (dose: 160.0 mg/kg/injection, schedule: Q01DX010 (ip), vehicle: saline) was 95 % of control.
For O=[N+]([O-])c1ccc(C(O)Nc2nccs2)o1 (stereo not drawn), the T/C [8] was 95 % of control, the T/C [4] was 100 % of control and 104 % of control and the T/C [5] was 100 % of control.
Cc1ccc(-c2nc3sccn3c2/C=N/NS(=O)(=O)c2ccc(C)cc2)cc1 was tested, and the T/C (dose: 100.0 mg/kg/injection, schedule: Q01DX001 (ip), vehicle: Klucel (hydroxypropylcellulose) (HPC)) was 101 % of control, the T/C (dose: 200.0 mg/kg/injection, schedule: Q01DX001 (ip), vehicle: Klucel (hydroxypropylcellulose) (HPC)) was 101 % of control and the T/C (dose: 400.0 mg/kg/injection, schedule: Q01DX001 (ip), vehicle: Klucel (hydroxypropylcellulose) (HPC)) was 101 % of control.
For [Cl][Ni+2][Cl].[NH-]CCN1CC1, the T/C (dose: 6.25 mg/kg/injection, schedule: Q01DX001 (ip), vehicle: saline) was 90 % of control, the T/C (dose: 12.5 mg/kg/injection, schedule: Q01DX001 (ip), vehicle: saline) was 100 % of control and the T/C (dose: 25.0 mg/kg/injection, schedule: Q01DX001 (ip), vehicle: saline) was 100 % of control.
For COC1=CC=C2C3Cc4ccc(OC)c(O)c4C2(C1)CN3C (stereo not drawn), the T/C (dose: 3.12 mg/kg/injection, schedule: Q01DX009 (ip), vehicle: Klucel (hydroxypropylcellulose) (HPC)) was 87 % of control, the T/C (dose: 6.25 mg/kg/injection, schedule: Q01DX009 (ip), vehicle: Klucel (hydroxypropylcellulose) (HPC)) was 87 % of control and the T/C [9] was 100 % of control.
c1ccc(-c2cc(-c3ccccc3)[s+]s2)cc1 was tested, and the T/C (dose: 6.25 mg/kg/injection, schedule: Q01DX009 (ip), vehicle: saline with Tween-80) was 111 % of control, the T/C (dose: 12.5 mg/kg/injection, schedule: Q01DX009 (ip), vehicle: saline with Tween-80) was 117 % of control and 124 % of control and the T/C (dose: 25.0 mg/kg/injection, schedule: Q01DX009 (ip), vehicle: saline with Tween-80) was 91 % of control and 110 % of control and 115 % of control. For the same molecule, the T/C [8] was 98 % of control, the T/C [1] was 92 % of control and 113 % of control and the T/C [4] was 109 % of control and 115 % of control. The T/C [2] was 98 % of control and 113 % of control, the T/C [5] was 117 % of control and 118 % of control and the T/C [3] was 99 % of control and 120 % of control. The T/C [6] was 108 % of control and the T/C (dose: 300.0 mg/kg/injection, schedule: Q01DX009 (ip), vehicle: saline with Tween-80) was 94 % of control.
With O=c1cc[nH]c2cc(C(F)(F)F)ccc12 the T/C [10] was 100 % of control and the T/C [11] was 95 % of control.
NC(=S)n1cccn1 was tested, and the T/C (dose: 50.0 mg/kg/injection, schedule: Q01DX010 (ip), vehicle: water) was 118 % of control.
CC1=C(O)/C(=C/C(C)CCC/C(C)=C/CC/C(C)=C/CCc2ccoc2)OC1=O (stereo not drawn) was tested, and the T/C (dose: 0.31 mg/kg/injection, schedule: Q01DX009 (ip), vehicle: saline with Tween-80) was 100 % of control, the T/C (dose: 0.62 mg/kg/injection, schedule: Q01DX009 (ip), vehicle: saline with Tween-80) was 104 % of control and the T/C (dose: 2.5 mg/kg/injection, schedule: Q01DX009 (ip), vehicle: saline with Tween-80) was 98 % of control. For the same molecule, the T/C (dose: 5.0 mg/kg/injection, schedule: Q01DX009 (ip), vehicle: saline with Tween-80) was 90 % of control.
With CC[CH2][Sn]([CH2]CC)([CH2]CC)[O][Sn]([CH2]CC)([CH2]CC)[CH2]CC the T/C (dose: 0.25 mg/kg/injection, schedule: Q01DX009 (ip), vehicle: saline with Tween-80) was 90 % of control, the T/C (dose: 0.25 mg/kg/injection, schedule: Q04DX003 (ip), vehicle: saline with Tween-80) was 100 % of control and the T/C (dose: 0.5 mg/kg/injection, schedule: Q01DX009 (ip), vehicle: saline with Tween-80) was 95 % of control. For the same molecule, the T/C (dose: 0.5 mg/kg/injection, schedule: Q04DX003 (ip), vehicle: saline with Tween-80) was 104 % of control, the T/C (dose: 1.0 mg/kg/injection, schedule: Q01DX009 (ip), vehicle: saline with Tween-80) was 100 % of control and the T/C (dose: 1.0 mg/kg/injection, schedule: Q04DX003 (ip), vehicle: saline with Tween-80) was 100 % of control.
In the case of CCCCCCCCCCCCCCCOc1ccc(C)cc1, the T/C (dose: 50.0 mg/kg/injection, schedule: Q04DX003 (ip), vehicle: saline sonified) is reported as 90 % of control, the T/C [10] is reported as 100 % of control and the T/C [11] is reported as 90 % of control.
For CN(C)c1ccc(/C=C\c2ccnc3ccccc23)cc1, the T/C (dose: 1.5 mg/kg/injection, schedule: Q01DX010 (ip), vehicle: saline) was 100 % of control, the T/C (dose: 3.0 mg/kg/injection, schedule: Q01DX010 (ip), vehicle: saline) was 95 % of control and the T/C (dose: 6.0 mg/kg/injection, schedule: Q01DX010 (ip), vehicle: saline) was 100 % of control. The T/C (dose: 12.0 mg/kg/injection, schedule: Q01DX010 (ip), vehicle: saline) was 109 % of control.
In the case of CCCCCCC(=O)NC1=C(N2CC2)C(=O)C(NC(=O)CCCCCC)=C(N2CC2)C1=O, the T/C [9] is reported as 182 % of control, the T/C (dose: 25.0 mg/kg/injection, schedule: Q01DX009 (ip), vehicle: saline) is reported as 234 % of control and the T/C (dose: 50.0 mg/kg/injection, schedule: Q01DX009 (ip), vehicle: Klucel (hydroxypropylcellulose) (HPC)) is reported as 208 % of control. The T/C [7] was 241 % of control, the T/C (dose: 66.0 mg/kg/injection, schedule: Q04DX003 (ip), vehicle: saline with Tween-80) was 166 % of control and the T/C (dose: 100.0 mg/kg/injection, schedule: Q01DX009 (ip), vehicle: Klucel (hydroxypropylcellulose) (HPC)) was 154 % of control. For the same molecule, the T/C (dose: 100.0 mg/kg/injection, schedule: Q01DX009 (ip), vehicle: saline) was 328 % of control, the T/C [5] was 191 % of control and 200 % of control and the T/C (dose: 150.0 mg/kg/injection, schedule: Q04DX003 (ip), vehicle: saline with Tween-80) was 200 % of control. The T/C (dose: 200.0 mg/kg/injection, schedule: Q01DX009 (ip), vehicle: saline) was 107 % of control, the T/C [6] was 154 % of control and the T/C (dose: 400.0 mg/kg/injection, schedule: Q04DX003 (ip), vehicle: saline with Tween-80) was 95 % of control.
For CCCCCCCCCCCCCCCCOc1ccc(C(C)(C)C)cc1, the T/C (dose: 37.5 mg/kg/injection, schedule: Q01DX001 (ip), vehicle: saline sonified) was 100 % of control, the T/C (dose: 75.0 mg/kg/injection, schedule: Q01DX001 (ip), vehicle: saline sonified) was 100 % of control and the T/C (dose: 150.0 mg/kg/injection, schedule: Q01DX001 (ip), vehicle: saline sonified) was 100 % of control.
